In brackets after ≈: the same amount, converted by molar mass.
Legend:
[1] = biological target: T1, Tryptophan 5-hydroxylase 1 (Homo sapiens, UniProt P17752); assay: Inhibition of recombinant MBP-tagged full length human THP1 using L-Trp as substrate assessed as formation of 5-HTP by measuring fluorescent property
T1 sequence (P17752 whole entry): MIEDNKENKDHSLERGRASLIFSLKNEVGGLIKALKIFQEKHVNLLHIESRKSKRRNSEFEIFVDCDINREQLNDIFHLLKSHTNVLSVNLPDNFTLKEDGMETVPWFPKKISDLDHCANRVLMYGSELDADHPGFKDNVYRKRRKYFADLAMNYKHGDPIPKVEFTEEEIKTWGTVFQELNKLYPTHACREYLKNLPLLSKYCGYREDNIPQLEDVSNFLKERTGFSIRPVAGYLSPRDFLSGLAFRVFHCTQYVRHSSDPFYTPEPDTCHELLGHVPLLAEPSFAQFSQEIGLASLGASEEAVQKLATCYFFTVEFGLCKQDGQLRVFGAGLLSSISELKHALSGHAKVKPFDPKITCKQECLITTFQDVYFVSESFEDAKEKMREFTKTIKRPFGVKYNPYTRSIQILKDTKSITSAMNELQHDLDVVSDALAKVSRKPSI

[2] = biological target: T2, Tryptophan 5-hydroxylase 2 (Homo sapiens, UniProt Q8IWU9); assay: Inhibition of recombinant MBP-tagged full length human THP2 using L-Trp as substrate assessed as formation of 5-HTP by measuring fluorescent property
T2 sequence (Q8IWU9 whole entry): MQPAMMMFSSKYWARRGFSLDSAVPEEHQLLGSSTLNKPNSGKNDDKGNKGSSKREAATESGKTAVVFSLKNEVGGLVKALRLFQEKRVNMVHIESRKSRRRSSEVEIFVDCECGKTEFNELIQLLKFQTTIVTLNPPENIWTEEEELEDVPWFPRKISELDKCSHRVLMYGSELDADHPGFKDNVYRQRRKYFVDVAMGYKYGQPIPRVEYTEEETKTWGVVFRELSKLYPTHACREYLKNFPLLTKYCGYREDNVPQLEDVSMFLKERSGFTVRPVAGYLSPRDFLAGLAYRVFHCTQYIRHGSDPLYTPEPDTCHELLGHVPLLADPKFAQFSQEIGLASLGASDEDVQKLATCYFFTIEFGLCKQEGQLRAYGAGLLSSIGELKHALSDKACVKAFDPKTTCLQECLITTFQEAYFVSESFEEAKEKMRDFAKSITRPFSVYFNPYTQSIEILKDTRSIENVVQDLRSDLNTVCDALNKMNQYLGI

[3] = Solubility in simulated intestinal fluid by HPLC-UV analysis; type: physicochemical
[4] = Aqueous solubility of the compound in pH 7.4 PBS buffer by HPLC-UV analysis; type: physicochemical
[5] = Solubility in simulated gastric fluid by HPLC-UV analysis; type: physicochemical
[6] = Plasma protein binding in human; type: ADME, cell-free; details: read-out: PPB (converted)
[7] = Plasma protein binding in rat; type: ADME, cell-free; details: read-out: PPB (converted)
[8] = Apparent permeability across apical to basal side in human Caco-2 cells at pH 6.5/7.4 measured at 5 uM by LC-MS/MS analysis; type: ADME, cell-based; details: Caco-2, pH 6.5
[9] = Apparent permeability across basal to apical side in human Caco-2 cells at pH 6.5/7.4 measured at 5 uM by LC-MS/MS analysis; type: ADME, cell-based; details: Caco-2, pH 6.5
[10] = Metabolic stability in human hepatocytes assessed as half life; type: ADME, cell-based, Hepatocyte
[11] = Metabolic stability in rat hepatocytes assessed as half life; type: ADME, cell-based, Hepatocyte
[12] = Metabolic stability in human hepatocytes assessed as intrinsic clearance; type: ADME, cell-based, Hepatocyte; details: read-out: CLH
[13] = Metabolic stability in rat hepatocytes assessed as intrinsic clearance; type: ADME, cell-based, Hepatocyte; details: read-out: CLH

CCOC(=O)Cn1c(Cc2cn3cc(C)sc3n2)nc2c1c(=O)[nH]c(=O)n2CC
IC50 [1]: 300 nM | IC50 [2]: 37 nM

CCn1c(=O)[nH]c(=O)c2c1nc(Cc1cn3cc(C)sc3n1)n2Cc1cc(C)cc(C)c1
IC50 [1]: 113 nM | IC50 [2]: 34 nM

CCn1c(=O)[nH]c(=O)c2c1nc(Cc1cn3cc(C)sc3n1)n2Cc1cccc(C(=O)O)c1
IC50 [1]: 357 nM | IC50 [2]: 58 nM

CCn1c(=O)[nH]c(=O)c2c1nc(Cc1cn3cc(C)sc3n1)n2CC1CCCCC1
IC50 [1]: 394 nM | IC50 [2]: 152 nM

CCn1c(=O)[nH]c(=O)c2c1nc(Cc1cn3cc(C)sc3n1)n2CC(=O)O
IC50 [1]: > 10000 nM | IC50 [2]: > 10000 nM

CCn1c(=O)[nH]c(=O)c2c1nc(Cc1cn3c(n1)CCCC3)n2Cc1ccccc1
solubility [3]: > 200 µM | solubility [4]: > 200 µM | solubility [5]: 188 µM (≈ 75.8 µg/mL) | fraction unbound [6]: 0.85 | fraction unbound [7]: 0.82 | Papp A→B at 5 µM [8]: 9.3 ×10⁻⁶ cm/s | Papp B→A at 5 µM [9]: 5.7 ×10⁻⁶ cm/s | half-life [10]: > 60 min | half-life [11]: > 60 min | CLint scaled [12]: < 115 mL/min/kg | CLint scaled [13]: < 115 mL/min/kg

CCn1c(=O)[nH]c(=O)c2c1nc(Cc1cn3cc(C)sc3n1)n2Cc1ccc(C(F)(F)F)cc1
IC50 [1]: 271 nM | IC50 [2]: 52 nM

CCn1c(=O)[nH]c(=O)c2c1nc(Cc1cn3cc(Cl)sc3n1)n2Cc1ccccc1
solubility [3]: 12.7 µM (≈ 5.6 µg/mL) | solubility [4]: 3.7 µM (≈ 1.63 µg/mL) | solubility [5]: 198 µM (≈ 87.1 µg/mL) | fraction unbound [6]: 0.23 | fraction unbound [7]: 0.25 | Papp A→B at 5 µM [8]: 29.4 ×10⁻⁶ cm/s | Papp B→A at 5 µM [9]: 47.7 ×10⁻⁶ cm/s | half-life [10]: > 60 min | half-life [11]: > 60 min | CLint scaled [12]: < 115 mL/min/kg | CLint scaled [13]: < 115 mL/min/kg

CCn1c(=O)[nH]c(=O)c2c1nc(Cc1cn3cc(Cl)sc3n1)n2Cc1ccc(-c2ccn(C)n2)cc1
solubility [3]: < 10 µM | solubility [4]: < 10 µM | solubility [5]: < 10 µM | fraction unbound [6]: 0.11 | fraction unbound [7]: 0.11 | Papp A→B at 5 µM [8]: 4.9 ×10⁻⁶ cm/s | Papp B→A at 5 µM [9]: 59.9 ×10⁻⁶ cm/s | half-life [10]: 40 min | half-life [11]: 8 min | CLint scaled [12]: 174 mL/min/kg | CLint scaled [13]: 854 mL/min/kg

CCn1c(=O)[nH]c(=O)c2c1nc(Cc1cn3ccccc3n1)n2Cc1ccc(-c2ccn(C)n2)cc1
solubility [3]: > 200 µM | solubility [4]: > 200 µM | solubility [5]: > 200 µM | fraction unbound [6]: 0.39 | fraction unbound [7]: 0.29 | Papp A→B at 5 µM [8]: 2.3 ×10⁻⁶ cm/s | Papp B→A at 5 µM [9]: 46.3 ×10⁻⁶ cm/s | half-life [10]: > 60 min | half-life [11]: 19 min | CLint scaled [12]: < 115 mL/min/kg | CLint scaled [13]: 367 mL/min/kg

CCn1c(=O)[nH]c(=O)c2c1nc(Cc1cn3c(n1)CCCC3)n2Cc1cccc(C(=O)NC[C@H](NC(=O)OCc2ccccc2)C(=O)OC)c1
IC50 [1]: 380 nM | IC50 [2]: 63 nM

CCn1c(=O)[nH]c(=O)c2c1nc(Cc1cn3cc(C)sc3n1)n2CC=C(C)C
IC50 [1]: 81 nM | IC50 [2]: 32 nM

CCn1c(=O)[nH]c(=O)c2c1nc(Cc1cn3cc(C)sc3n1)n2CCCC(=O)O
IC50 [1]: 690 nM | IC50 [2]: 69 nM

CCn1c(=O)[nH]c(=O)c2c1nc(Cc1cn3cc(C)sc3n1)n2CCC=C(C)C
IC50 [1]: 676 nM | IC50 [2]: 116 nM

CCn1c(=O)[nH]c(=O)c2c1nc(Cc1cn3cc(C)sc3n1)n2CC1CCC1
IC50 [1]: 47 nM | IC50 [2]: 31 nM

CCn1c(=O)[nH]c(=O)c2c1nc(Cc1cn3cc(C)sc3n1)n2CC1CCNCC1
IC50 [1]: > 10000 nM | IC50 [2]: > 10000 nM

CCn1c(=O)[nH]c(=O)c2c1nc(Cc1cn3c(n1)CCCC3)n2CC1CCC1
IC50 [1]: 394 nM | IC50 [2]: 32 nM

CCn1c(=O)[nH]c(=O)c2c1nc(Cc1cn3cc(C)sc3n1)n2CC1CCN(C)CC1
IC50 [1]: > 10000 nM | IC50 [2]: > 10000 nM

CCn1c(=O)[nH]c(=O)c2c1nc(Cc1cn3cc(C)sc3n1)n2C(C)C
IC50 [1]: 228 nM | IC50 [2]: 24 nM

CCn1c(=O)[nH]c(=O)c2c1nc(Cc1cn3c(n1)CCCC3)n2Cc1cccc(C(=O)O)c1
IC50 [1]: 3270 nM | IC50 [2]: 307 nM

CCn1c(=O)[nH]c(=O)c2c1nc(Cc1cn3cc(C)sc3n1)n2Cc1ccccn1
IC50 [1]: 84 nM | IC50 [2]: 18 nM

CCn1c(=O)[nH]c(=O)c2c1nc(Cc1cn3c(n1)CCCC3)n2Cc1cccc(C(=O)NC[C@H](N)C(=O)O)c1
IC50 [1]: 1670 nM | IC50 [2]: 176 nM

CCn1c(=O)[nH]c(=O)c2c1nc(Cc1cn3cc(C)sc3n1)n2CC1CCN(C(C)C)CC1
IC50 [1]: > 10000 nM | IC50 [2]: > 10000 nM

CCOC(=O)CCCn1c(Cc2cn3cc(C)sc3n2)nc2c1c(=O)[nH]c(=O)n2CC
IC50 [1]: 107 nM | IC50 [2]: 26 nM

CCn1c(=O)[nH]c(=O)c2c1nc(Cc1cn3cc(C)sc3n1)n2Cc1ccccc1
solubility [3]: 48.5 µM (≈ 20.4 µg/mL) | solubility [4]: 35.1 µM (≈ 14.8 µg/mL) | solubility [5]: 177 µM (≈ 74.4 µg/mL) | fraction unbound [6]: 0.24 | fraction unbound [7]: 0.21 | Papp A→B at 5 µM [8]: 24.7 ×10⁻⁶ cm/s | Papp B→A at 5 µM [9]: 53.9 ×10⁻⁶ cm/s | half-life [10]: 22 min | half-life [11]: 13 min | CLint scaled [12]: 315 mL/min/kg | CLint scaled [13]: 514 mL/min/kg

CCn1c(=O)[nH]c(=O)c2c1nc(Cc1cn3c(n1)CCCC3)n2Cc1cccc(C(=O)NC[C@H](N)C(=O)OC)c1
IC50 [1]: 880 nM | IC50 [2]: 58 nM

CCn1c(=O)[nH]c(=O)c2c1nc(Cc1cn3cc(C)sc3n1)n2CCC(=O)OC
IC50 [1]: 533 nM | IC50 [2]: 57 nM

CCn1c(=O)[nH]c(=O)c2c1nc(Cc1cn3c(n1)CCCC3)n2CC1COC1
IC50 [1]: 772 nM | IC50 [2]: 57 nM

CCn1c(=O)[nH]c(=O)c2c1nc(Cc1cn3cc(C)sc3n1)n2CCCOC
IC50 [1]: 343 nM | IC50 [2]: 38 nM

CCc1nc(C)ccc1OCC(=O)N1CCc2nc3n(c2C1c1ccc(Cl)cc1F)CCCC3 (racemic)
IC50 [1]: 151 nM | IC50 [2]: 51 nM

CCn1c(=O)[nH]c(=O)c2c1nc(Cc1cn3c(n1)CCCC3)n2Cc1cccc(C(=O)OC)c1
IC50 [1]: 243 nM | IC50 [2]: 25 nM

CCn1c(=O)[nH]c(=O)c2c1nc(Cc1cn3cc(C)sc3n1)n2Cc1cccc(C(=O)OC)c1
IC50 [1]: 66 nM | IC50 [2]: 22 nM

CCn1c(=O)[nH]c(=O)c2c1nc(Cc1cn3cc(C)sc3n1)n2Cc1cccc(C)n1
IC50 [1]: 196 nM | IC50 [2]: 24 nM

CCn1c(=O)[nH]c(=O)c2c1nc(Cc1cn3cc(C)sc3n1)n2Cc1cccc(C(F)(F)F)c1
IC50 [1]: 157 nM | IC50 [2]: 41 nM
